Molecules are shown by their SMILES. pKi: −log10 of the molar value.

The target in this experiment is T1, recombinant human LTA4 hydrolase (rhLTA4H) (Homo sapiens, UniProt P09960).
T1 construct: made in house; host or cells: Spodoptera frugiperda (Sf-9) cells, baculovirus (pFastBac1)
T1 sequence (P09960 1-611): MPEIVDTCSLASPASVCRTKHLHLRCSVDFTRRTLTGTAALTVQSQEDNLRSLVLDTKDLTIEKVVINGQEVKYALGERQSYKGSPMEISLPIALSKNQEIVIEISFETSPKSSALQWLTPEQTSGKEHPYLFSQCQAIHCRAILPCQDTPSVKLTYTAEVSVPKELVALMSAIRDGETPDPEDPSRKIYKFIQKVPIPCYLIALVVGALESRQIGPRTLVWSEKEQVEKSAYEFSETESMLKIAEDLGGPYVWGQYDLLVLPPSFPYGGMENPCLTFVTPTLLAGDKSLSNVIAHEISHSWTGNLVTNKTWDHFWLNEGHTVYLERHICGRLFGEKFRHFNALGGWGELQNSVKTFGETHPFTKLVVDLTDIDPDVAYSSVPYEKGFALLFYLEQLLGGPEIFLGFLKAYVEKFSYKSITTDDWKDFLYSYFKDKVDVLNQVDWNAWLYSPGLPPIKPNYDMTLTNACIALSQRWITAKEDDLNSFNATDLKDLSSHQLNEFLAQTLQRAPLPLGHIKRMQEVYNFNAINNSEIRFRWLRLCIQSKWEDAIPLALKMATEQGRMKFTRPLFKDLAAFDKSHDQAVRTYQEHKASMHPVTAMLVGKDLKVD
Briefly: Recombinant Human LTA4 Hydrolase Assay for LTA4 Hydrolase Inhibitor Activity. The class given is biochemical. Particulars: average of results obtained; LTB4 quantified by enzyme-linked immunoassay. Put shortly: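 Baculovirus/Sf-9-expressed human LTA4 hydrolase (36 ng) preincubated with compound 10 min at rt in 0.1 M potassium phosphate pH 7.4, 5 mg/mL fatty-acid-free BSA. Reaction started with 9 ng LTA4 free acid, run 10 min at rt; LTB4 measured by enzyme immunoassay, IC50 from 4-parameter fit.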
The pKi is the negative decadic logarithm of the Ki, by convention in mol/L. In the case of `NC(=O)N1C[C@H]2C[C@@H]1CN2Cc1ccc(Oc2nc3cccc(Cl)c3s2)cc1` [Example 196, (R,R)-5-[4-(7-Chloro-benzothiazol-2-yloxy)-benzyl]-2,5-diaza-bicyclo[2.2.1]heptane-2-carboxylic acid amide], the negative logarithm of the Ki (pKi) was 6.10. To `CC(=O)N[C@@H]1C[C@H]2CC[C@@H](C1)N2CCOc1ccc(Oc2nc3ccc(F)cc3s2)cc1` [Example 227, meso-exo-N-(8-{2-[4-(6-Fluoro-benzothiazol-2-yloxy)-phenoxy]-ethyl}-8-aza-bicyclo[3.2.1]oct-3-yl)-acetamide] belongs 8.10; to `CC(=O)N1[C@@H]2CC[C@H]1C[C@H](NCCOc1ccc(Oc3nc4ccc(Cl)cc4s3)cc1)C2` [Example 178, meso-exo-1-(3-{2-[4-(6-Chloro-benzothiazol-2-yloxy)-phenoxy]-ethylamino}-8-aza-bicyclo[3.2.1]oct-8-yl)-ethanone], 6.05. To `O=C(c1cnccn1)N1CC2CN(Cc3ccc(Oc4nc5ccccc5s4)cc3)CC2C1` (stereo not drawn) [Example 105, {5-[4-(Benzothiazol-2-yloxy)-benzyl]-hexahydro-pyrrolo[3,4-c]pyrrol-2-yl}-pyrazin-2-yl-methanone] belongs 7.16; to `CC(C)(C)OC(=O)CN1C[C@@H]2C[C@H]1CN2Cc1ccc(Oc2nc3ccccc3s2)cc1` [Example 50, (S,S)-{5-[4-(Benzothiazol-2-yloxy)-benzyl]-2,5-diaza-bicyclo[2.2.1]hept-2-yl}-acetic acid tert-butyl ester], 8.05. On to `CC(C)(C)OC(=O)N1CC(C(=O)N2C[C@@H]3C[C@H]2CN3Cc2ccc(Oc3nc4ccccc4s3)cc2)C1` [Example 64, (S,S)-3-{5-[4-(Benzothiazol-2-yloxy)-benzyl]-2,5-diaza-bicyclo[2.2.1]heptane-2-carbonyl}-azetidine-1-carboxylic acid tert-butyl ester], for which the pKi was 7.24.

With `CC(=O)N[C@H]1C[C@H]2CC[C@@H](C1)N2CCOc1ccc(Oc2nc3ccc(C)cc3s2)cc1` [Example 271], the pKi was 7.10. On to `CS(=O)(=O)N1[C@@H]2CC[C@H]1C[C@H](NCc1ccc(Oc3nc4cc(Cl)ccc4s3)cc1)C2` [Example 185, meso-exo-[4-(5-Chloro-benzothiazol-2-yloxy)-benzyl]-(8-methanesulfonyl-8-aza-bicyclo[3.2.1]oct-3-yl)-amine], for which the negative-log Ki (pKi) was 6.02.

On to `CS(=O)(=O)N1[C@@H]2CC[C@H]1C[C@@H](NCCc1ccc(Oc3nc4c(F)cccc4s3)cc1)C2` [Example 279, meso-endo-{2-[4-(4-Fluoro-benzothiazol-2-yloxy)-phenyl]-ethyl}-(8-methanesulfonyl-8-aza-bicyclo[3.2.1]oct-3-yl)-amine], for which the pKi is 7.68. As for `CC(=O)N[C@H]1C[C@H]2CC[C@@H](C1)N2Cc1ccc(Oc2nc3ccc(C)cc3s2)cc1` [Example 73, meso-endo-N-{8-[4-(6-Methyl-benzothiazol-2-yloxy)-benzyl]-8-aza-bicyclo[3.2.1]oct-3-yl}-acetamide], the pKi was 7.48. In the case of `NC(=O)N1C[C@H]2C[C@@H]1CN2CCOc1ccc(Oc2nc3cc(Cl)ccc3s2)cc1` [Example 176, (R,R)-5-{2-[4-(5-Chloro-benzothiazol-2-yloxy)-phenoxy]-ethyl}-2,5-diaza-bicyclo[2.2.1]heptane-2-carboxylic acid amide] it was 6.37.

Consider `NCC(=O)N1CCC2CN(Cc3ccc(Oc4nc5ccccc5s4)cc3)CC21` (stereo not drawn) [Example 95, 2-Amino-1-{5-[4-(benzothiazol-2-yloxy)-benzyl]-hexahydro-pyrrolo[3,4-b]pyrrol-1-yl}-ethanone], for which the pKi was 7.44. To `COC(=O)c1ccc(CN2CC3CN(Cc4ccc(Oc5nc6ccccc6s5)cc4)CC3C2)cc1` (stereo not drawn) [Example 153, 4-{5-[4-(Benzothiazol-2-yloxy)-benzyl]-hexahydro-pyrrolo[3,4-c]pyrrol-2-ylmethyl)-benzoic acid methyl ester] belongs 6.78; to `CC(=O)N1CC2CN(Cc3ccc(Oc4nc5ccccc5s4)cc3)CC2C1` (stereo not drawn) [Example 88, 1-{5-[4-(Benzothiazol-2-yloxy)-benzyl]-hexahydro-pyrrolo[3,4-c]pyrrol-2-yl}-ethanone], 8.52; to `NC(=O)N[C@@H]1C[C@H]2CC[C@@H](C1)N2CCOc1ccc(Oc2nc3ccc(Cl)cc3s2)cc1` [Example 234, meso-exo-(8-{2-[4-(6-Chloro-benzothiazol-2-yloxy)-phenoxy]-ethyl}-8-aza-bicyclo[3.2.1]oct-3-yl)-urea], 7.14.

Turning to `CS(=O)(=O)N1C[C@@H]2C[C@H]1CN2CCOc1ccc(Oc2nc3c(F)cccc3s2)cc1` [Example 191, (S,S)-4-Fluoro-2-{4-[2-(5-methanesulfonyl-2,5-diaza-bicyclo[2.2.1]hept-2-yl)-ethoxy]-phenoxy}-benzothiazole], the pKi is 7.49. In the case of `CS(=O)(=O)N[C@@H]1C[C@H]2CC[C@@H](C1)N2CCOc1ccc(Oc2nc3ccc(Cl)cc3s2)cc1` [Example 225, meso-exo-N-(8-{2-[4-(6-Chloro-benzothiazol-2-yloxy)-phenoxy]-ethyl}-8-aza-bicyclo[3.2.1]oct-3-yl)-methanesulfonamide] it was 6.94; in that of `CC(C)(C)OC(=O)NCC(=O)N1C[C@@H]2C[C@H]1CN2Cc1ccc(Oc2nc3ccccc3s2)cc1` [Example 14, (S,S)-(2-{5-[4-(Benzothiazol-2-yloxy)-benzyl]-2,5-diaza-bicyclo[2.2.1]hept-2-yl}-2-oxo-ethyl)-carbamic acid tert-butyl ester], 8.05; in that of `NS(=O)(=O)N1CC2CN(Cc3ccc(Oc4nc5ccccc5s4)cc3)CC2C1` (stereo not drawn) [Example 119, 5-[4-(Benzothiazol-2-yloxy)-benzyl]-hexahydro-pyrrolo[3,4-c]pyrrole-2-sulfonic acid amide], 7.14.

Regarding `NC(=O)N[C@H]1C[C@H]2CC[C@@H](C1)N2Cc1ccc(Oc2nc3cc(Cl)ccc3s2)cc1` [Example 259, meso-endo-{8-[4-(5-Chloro-benzothiazol-2-yloxy)-benzyl]-8-aza-bicyclo[3.2.1]oct-3-yl}-urea], the pKi was 7.24.

For `NC(=O)N1C[C@H]2C[C@@H]1CN2CCc1ccc(Oc2nc3cc(F)ccc3s2)cc1` [Example 244, (R,R)-5-{2-[4-(5-Fluoro-benzothiazol-2-yloxy)-phenyl]-ethyl}-2,5-diaza-bicyclo[2.2.1]heptane-2-carboxylic acid amide], the pKi is 7.92. In the case of `CC(=O)N[C@@H]1C[C@H]2CC[C@@H](C1)N2Cc1ccc(Oc2nc3cc(Cl)ccc3s2)cc1` [Example 276, meso-exo-N-{8-[4-(5-Chloro-benzothiazol-2-yloxy)-benzyl]-8-aza-bicyclo[3.2.1]oct-3-yl}-acetamide] it was 7.42; in that of `NC(=O)N1CC2CN(Cc3ccc(Oc4nc5c(F)cccc5s4)cc3F)CC2C1` (stereo not drawn) [Example 161, 5-[2-Fluoro-4-(4-fluoro-benzothiazol-2-yloxy)-benzyl]-hexahydro-pyrrolo[3,4-c]pyrrole-2-carboxylic acid amide], 7.37. For `COCC(=O)N1C[C@H]2C[C@@H]1CN2Cc1ccc(Oc2nc3ccccc3s2)cc1` [Example 21, (R,R)-1-{5-[4-(Benzothiazol-2-yloxy)-benzyl]-2,5-diaza-bicyclo[2.2.1]hept-2-yl}-2-methoxy-ethanone], the pKi was 7.89. To `NC(=O)N1C[C@H]2C[C@@H]1CN2Cc1ccc(Oc2nc3c(F)cccc3s2)cc1` [Example 186, (R,R)-5-[4-(4-Fluoro-benzothiazol-2-yloxy)-benzyl]-2,5-diaza-bicyclo[2.2.1]heptane-2-carboxylic acid amide] belongs 8.00; to `CC(=O)N1C[C@@H]2C[C@H]1CN2Cc1ccc(Oc2nc3ccccc3s2)cc1F` [Example 79, (S,S)-1-{5-[4-(Benzothiazol-2-yloxy)-2-fluoro-benzyl]-2,5-diaza-bicyclo[2.2.1]hept-2-yl}-ethanone], 7.23. To `NC(=O)N1C[C@@H]2C[C@H]1CN2Cc1ccc(Oc2nc3ccccc3s2)cc1F` [Example 80, (S,S)-5-[4-(Benzothiazol-2-yloxy)-2-fluoro-benzyl]-2,5-diaza-bicyclo[2.2.1]heptane-2-carboxylic acid amide] belongs 7.22; to `CS(=O)(=O)N1[C@@H]2CC[C@H]1C[C@H](NCc1ccc(Oc3nc4ccc(F)cc4s3)cc1)C2` [Example 205, meso-exo-[4-(6-Fluoro-benzothiazol-2-yloxy)-benzyl]-(8-methanesulfonyl-8-aza-bicyclo[3.2.1]oct-3-yl)-amine], 6.40.

As for `CC(=O)N1C[C@@H]2C[C@H]1CN2CCOc1ccc(Oc2nc3cc(Cl)ccc3s2)cc1` [Example 264, (S,S)-1-(5-{2-[4-(5-Chloro-benzothiazole-2-yloxy)-phenoxy]-ethyl}-2,5-diaza-bicyclo[2.2.1]hept-2-yl)-ethanone], the pKi is 6.67. As to `O=C(c1ccno1)N1CC2CN(Cc3ccc(Oc4nc5ccccc5s4)cc3)CC2C1` (stereo not drawn) [Example 114, {5-[4-(Benzothiazol-2-yloxy)-benzyl]-hexahydro-pyrrolo[3,4-c]pyrrol-2-yl}-isoxazol-5-yl-methanone], the pKi was 7.48.

Source of the values: patent US8344008B2 (Janssen Pharmaceutica NV, priority 2007, dated 2013).
